Several values for one entry are separate records, joined by “and”; a condition that tells them apart may be missing. Identical values can stand only once. Like-named read-outs stand apart in the source and are kept apart here.
Key:
H. polygyrus = experiment: In vivo efficacy study in H. polygyrus mouse model; set-up: species or system NMRI mice infected with H. polygyrus; conditions: for # Mice cured/ # Mice investigated: assessed 1 week after dosing; for Median # of living H. polygyrus worms: median (MAD) of adults collected from intestine; for Live worms in intestine (individual mouse) / Live worms in intestine, Median (+/- MAD): worm burden one week after dose; for Live worms in intestine (individual mouse): Mouse 1-4, 200 mg/kg; for Live worms in intestine, Median (+/- MAD): three to four mice
Protocol: For in vivo testing, female 3-week old NMRI mice were purchased from Charles River, Germany. The mice were kept in individually ventilated cages (IVC) under environmentally controlled conditions (temperature: 22 °C ± 2 °C; relative humidity: 55% ± 15%; artificial lighting with a circadian cycle of 12 h of light) and had free access to water (municipal tap water supply) and rodent food. Rodents were allowed to acclimatize to the new environment for 1 week before infection. Upon 2 days of arrival, dexamethasone (0.25 mg/L) (Sigma-Aldrich, Switzerland) was added to the normal drinking water for immunosuppression to enable parasite establishment. After 1 week, mice were orally infected with 100 H. polygyrus third larval stage (L3) in 150 µL water.
Four benzimidazole derivatives were tested for in vivo efficacy. The administration of dexamethasone was stopped after 12 days post-infection and 2 days later, the selected four benzimidazole derivatives were administered by oral gavage at a single dose of 200 mg/kg to groups of each four mice. Four mice were left untreated and served as a control group. The derivatives were prepared as a Tween80 (Sigma-Aldrich, Switzerland)/ethanol (Merck, Germany) mixture dissolved in tap water (7:3:90, v/v). After 6–7 days post-dosing, the mice were euthanized with CO2 and dissected. Adult worms were removed from the intestine and counted. The worm burden reduction was calculated by comparing the number of worms found in the control animals versus the treated animals.

C. elegans = C. elegans chemical screens of RIKEN NPD libraries at 50 μM (hit identification in KCN survival and development/viability assays); format: cell-based, Caenorhabditis elegans; conditions: screened at 50 μM in triplicate, KCN = KCN survival assay, Dev. & Viability = development/viability assay
C. briggsae complex I = C. briggsae complex I (Caenorhabditis briggsae, UniProt A8X476+A8XFG2+Q8HEC4); experiment: In vitro complex I activity assay, C. briggsae mitochondria; format: biochemical
Protocol: Mitochondria were isolated from the following free-living nematode strains: C. elegans—N2, CB3474, ECA882, ECA917, ECA1075, ECA1080; C. briggsae—AF16; P. pacificus—PS312; and P. hermaphrodita—B178. With the exception of the P. hermaphrodita strain B178, adult worms of each strain were grown in bulk through liquid culture to obtain mitochondria in sufficient quantities. Due to poor growth in liquid media, mixed stage populations of P. hermaphrodita were washed off and collected from NGM plates seeded with OP50. The isolation of mitochondria from all free-living nematode strains followed the protocol previously outlined in Burns et al.[24]. In brief, a 1 L saturated culture of E. coli HB101 was concentrated 20-fold in 50 mL complete S-medium. ~500,000 L1 worms synchronized from an embryo preparation performed the day prior were added to the S-media/HB101 suspension and grown to adulthood over the course of 3.5 days at 20 °C with shaking at 165 rpm. Following growth, worms were collected in 10 ×15 mL conical tubes and washed 7 times in M9 buffer. Worm suspensions were then combined into a single 15 mL conical tube and diluted to a final volume of 15 mL with M9 buffer. 1 mL aliquots of worm suspension were then distributed to 15 × 1.5 mL screw-cap microcentrifuge tubes and were pelleted at 500 g for 1 min. Excess M9 was aspirated without disturbing the worm pellet. 600 μL ice-cold isolate buffer A (250 mM sucrose, 10 mM Tris (pH 7.5), 1 mM EDTA, 1 mM PMSF (freshly prepared)) and 300 μL cold glass beads were then added to each tube. Tubes were incubated on ice for 10 min, and the worms were then lysed by bead beating (6 x 30 s, with 1 min cooling intervals). Tubes containing worm lysate were centrifuged at 1,000 g for 10 min at 4 °C and the supernatant was transferred to 15 new microcentrifuge tubes on ice. The tubes were centrifuged a second time at 1,000 g for 10 min at 4 °C and the supernatant was once again transferred to 15 new microcentrifuge tubes on ice. These tubes were then centrifuged at 16,000 g for 10 min at 4 °C. The resulting mitochondrial pellet was washed twice by re-suspension in 300 μL of ice-cold isolate buffer B (250 mM sucrose, 10 mM Tris (pH 7.5), 1 mM EDTA). Following the final wash, isolation buffer was aspirated from each tube and the pellets were flash-frozen in ethanol/dry ice and stored at −80 °C until needed.
The enzymatic activities of individual ETC complexes (I-IV) were assessed spectrophotometrically in isolated mitochondria using a Varioskan LUX Multimode plate reader (ThermoFisher Scientific). Mitochondrial pellets previously isolated were thawed on ice and resuspended in ice-cold isolation buffer (250 mM sucrose, 10 mM Tris (pH 7.5), 1 mM EDTA). The BCA assay (Walker, 1994) was used to quantify the protein concentration of mitochondria suspensions; solutions were diluted to a concentration of 0.2 mg/mL for use in all assays. For the complex I assay, mitochondria pellets were freeze-thawed on ice three times to increase enzyme accessibility. […] 20 μL mitochondria suspension was then added/mixed with a pipette to initiate the reaction. Immediately following the addition of mitochondria, absorbance was measured (complex I and II: 600 nm; complex III and IV: 550 nm) in 30 s intervals over 15 min. Enzymatic activity was determined in each reaction by plotting absorbance versus time and calculating the slope of the curve during the initial linear phase of the reaction. […] Percent activity of each complex was calculated by dividing the enzyme-specific activity of each well by the enzyme-specific activity of the corresponding solvent controls.
Chemical solutions were prepared in complex I assay buffer composed of 25 mM KPi buffer (pH 7.5), 3 mg/mL bovine serum albumin (BSA), 80 μM NADH, 60 μM decylubiquinone, 160 μM DCIP, 2 μM antimycin A and 2 mM KCN.
For preliminary screens of hit compounds, compounds were screened at 100 μM; data are the average of at least three biological replicates.

[1] = single oral dose 200 mg/kg, vs untreated control mice
[2] = single oral dose of 200 mg/kg, median worm counts versus control mice

C. briggsae complex I, sequence (A8X476 31-482): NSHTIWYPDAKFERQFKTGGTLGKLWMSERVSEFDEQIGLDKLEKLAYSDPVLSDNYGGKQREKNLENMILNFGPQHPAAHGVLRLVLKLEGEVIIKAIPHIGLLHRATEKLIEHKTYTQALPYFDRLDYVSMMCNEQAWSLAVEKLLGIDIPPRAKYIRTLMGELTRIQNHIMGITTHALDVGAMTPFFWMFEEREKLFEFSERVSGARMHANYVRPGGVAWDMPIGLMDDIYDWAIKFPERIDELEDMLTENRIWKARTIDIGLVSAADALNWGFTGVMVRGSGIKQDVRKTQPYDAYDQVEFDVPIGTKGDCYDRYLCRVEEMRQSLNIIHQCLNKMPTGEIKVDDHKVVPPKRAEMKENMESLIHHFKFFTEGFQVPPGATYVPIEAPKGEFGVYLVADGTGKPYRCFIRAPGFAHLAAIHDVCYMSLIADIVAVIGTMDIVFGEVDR
C. briggsae complex I, sequence (A8XFG2 17-199): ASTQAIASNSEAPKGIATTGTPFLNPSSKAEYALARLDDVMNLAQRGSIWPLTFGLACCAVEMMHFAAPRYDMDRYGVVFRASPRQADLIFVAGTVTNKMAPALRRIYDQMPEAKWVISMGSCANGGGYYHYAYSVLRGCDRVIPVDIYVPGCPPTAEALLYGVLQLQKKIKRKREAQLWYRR
C. briggsae complex I, sequence (Q8HEC4 whole entry): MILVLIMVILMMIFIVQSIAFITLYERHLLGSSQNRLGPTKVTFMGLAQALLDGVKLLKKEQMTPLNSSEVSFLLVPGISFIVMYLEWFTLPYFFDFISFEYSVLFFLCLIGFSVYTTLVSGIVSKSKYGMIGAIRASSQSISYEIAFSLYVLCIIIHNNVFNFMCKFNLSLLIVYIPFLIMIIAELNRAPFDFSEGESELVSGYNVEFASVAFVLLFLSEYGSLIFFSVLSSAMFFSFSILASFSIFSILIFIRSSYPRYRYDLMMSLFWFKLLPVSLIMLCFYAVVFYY

Clc1ccc(SCCCCn2cnc3ccccc32)cc1 [Compound 7925515]
# Mice cured/ # Mice investigated (H. polygyrus; single oral dose 200 mg/kg): 0/4 | % Worm burden reduction (H. polygyrus; [1]): 19.4% | Median # of living H. polygyrus worms (H. polygyrus; single oral dose 200 mg/kg): 100.0 (8.0) | % Worm burden reduction (H. polygyrus; [2]): 19.3548% | Live worms in intestine (individual mouse) (H. polygyrus; single oral dose of 200 mg/kg): 113 and 100 and 92 | Live worms in intestine, Median (+/- MAD) (H. polygyrus; single oral dose of 200 mg/kg): 100 (8.0)

COc1cc2c(cc1OC)C(c1ccc(-c3ccc(Cl)c(Cl)c3)o1)=NCC2 [NPD3577]
Hit Type (C. elegans; […]): KCN

COc1cc2c(cc1OC)C(/C=C/c1ccc(N(C)C)cc1)=NCC2 [NPD6303]
Hit Type (C. elegans; […]): KCN

COc1cc2c(cc1OC)C(C(C)c1ccc(CC(C)C)cc1)=NCC2 (stereo not shown) [NPD10504]
Hit Type (C. elegans; […]): KCN

Cc1nc2ccccc2n1Cc1ccc(Cl)cc1 [STK697993]
remaining activity at 0.0001 µM (C. briggsae complex I; C. briggsae mitochondria, 0.0001 µM, Mean, read-out: in vitro complex I activity relative to solvent control): 84.5% | in vitro complex I activity relative to solvent control (C. briggsae complex I; C. briggsae mitochondria, 0.0001 µM, single replicate): 91.655% and 73.328% | remaining activity at 0.0001 µM (C. briggsae complex I; C. briggsae mitochondria, 0.0001 µM, single replicate, read-out: in vitro complex I activity relative to solvent control): 88.5% | remaining activity at 0.0005 µM (C. briggsae complex I; C. briggsae mitochondria, 0.0005 µM, Mean, read-out: in vitro complex I activity relative to solvent control): 92.6% | in vitro complex I activity relative to solvent control (C. briggsae complex I; C. briggsae mitochondria, 0.0005 µM, single replicate): 92.151% and 96.046% | remaining activity at 0.0005 µM (C. briggsae complex I; C. briggsae mitochondria, 0.0005 µM, single replicate, read-out: in vitro complex I activity relative to solvent control): 89.6% | remaining activity at 0.001 µM (C. briggsae complex I; C. briggsae mitochondria, 0.001 µM, Mean, read-out: in vitro complex I activity relative to solvent control): 98.3% | in vitro complex I activity relative to solvent control (C. briggsae complex I; C. briggsae mitochondria, 0.001 µM, single replicate): 98.678% and 90.340% | remaining activity at 0.001 µM (C. briggsae complex I; C. briggsae mitochondria, 0.001 µM, single replicate, read-out: in vitro complex I activity relative to solvent control): 106% | remaining activity at 0.0025 µM (C. briggsae complex I; C. briggsae mitochondria, 0.0025 µM, Mean, read-out: in vitro complex I activity relative to solvent control): 104% | in vitro complex I activity relative to solvent control (C. briggsae complex I; C. briggsae mitochondria, 0.0025 µM, single replicate): 101.880% and 103.212% | remaining activity at 0.0025 µM (C. briggsae complex I; C. briggsae mitochondria, 0.0025 µM, single replicate, read-out: in vitro complex I activity relative to solvent control): 106% | remaining activity at 0.005 µM (C. briggsae complex I; C. briggsae mitochondria, 0.005 µM, Mean, read-out: in vitro complex I activity relative to solvent control): 99.2% | in vitro complex I activity relative to solvent control (C. briggsae complex I; C. briggsae mitochondria, 0.005 µM, single replicate): 95.872% and 91.749% | remaining activity at 0.005 µM (C. briggsae complex I; C. briggsae mitochondria, 0.005 µM, single replicate, read-out: in vitro complex I activity relative to solvent control): 110% | remaining activity at 0.013 µM (C. briggsae complex I; C. briggsae mitochondria, 0.013 µM, Mean, read-out: in vitro complex I activity relative to solvent control): 91% | in vitro complex I activity relative to solvent control (C. briggsae complex I; C. briggsae mitochondria, 0.013 µM, single replicate): 83.705% and 87.377% | remaining activity at 0.013 µM (C. briggsae complex I; C. briggsae mitochondria, 0.013 µM, single replicate, read-out: in vitro complex I activity relative to solvent control): 102% | remaining activity at 0.025 µM (C. briggsae complex I; C. briggsae mitochondria, 0.025 µM, Mean, read-out: in vitro complex I activity relative to solvent control): 82.5% | in vitro complex I activity relative to solvent control (C. briggsae complex I; C. briggsae mitochondria, 0.025 µM, single replicate): 95.007% and 79.112% and 73.336% | remaining activity at 0.063 µM (C. briggsae complex I; C. briggsae mitochondria, 0.063 µM, Mean, read-out: in vitro complex I activity relative to solvent control): 54.5% | in vitro complex I activity relative to solvent control (C. briggsae complex I; C. briggsae mitochondria, 0.063 µM, single replicate): 60.174% and 66.771% and 36.409% | remaining activity at 0.125 µM (C. briggsae complex I; C. briggsae mitochondria, 0.125 µM, Mean, read-out: in vitro complex I activity relative to solvent control): 33.3% | in vitro complex I activity relative to solvent control (C. briggsae complex I; C. briggsae mitochondria, 0.125 µM, single replicate): 36.143% and 47.895% and 15.798% | remaining activity at 0.313 µM (C. briggsae complex I; C. briggsae mitochondria, 0.313 µM, Mean, read-out: in vitro complex I activity relative to solvent control): 12.2% | in vitro complex I activity relative to solvent control (C. briggsae complex I; C. briggsae mitochondria, 0.313 µM, single replicate): 16.180% and 20.382% and 0.000% | remaining activity at 0.625 µM (C. briggsae complex I; C. briggsae mitochondria, 0.625 µM, Mean, read-out: in vitro complex I activity relative to solvent control): 5.29% | in vitro complex I activity relative to solvent control (C. briggsae complex I; C. briggsae mitochondria, 0.625 µM, single replicate): 0.000% and 15.885% | remaining activity at 1.5 µM (C. briggsae complex I; C. briggsae mitochondria, 1.5 µM, Mean, read-out: in vitro complex I activity relative to solvent control): 3.62% | in vitro complex I activity relative to solvent control (C. briggsae complex I; C. briggsae mitochondria, 1.5 µM, single replicate): 0.000% and 10.874% | remaining activity at 3 µM (C. briggsae complex I; C. briggsae mitochondria, 3 µM, Mean, read-out: in vitro complex I activity relative to solvent control): 5.17% | in vitro complex I activity relative to solvent control (C. briggsae complex I; C. briggsae mitochondria, 3 µM, single replicate): 0.000% and 15.522% | remaining activity at 15 µM (C. briggsae complex I; C. briggsae mitochondria, 15 µM, Mean, read-out: in vitro complex I activity relative to solvent control): 7.49% | in vitro complex I activity relative to solvent control (C. briggsae complex I; C. briggsae mitochondria, 15 µM, single replicate): 0.019% and 20.437% and 1.999% | remaining activity at 37.5 µM (C. briggsae complex I; C. briggsae mitochondria, 37.5 µM, Mean, read-out: in vitro complex I activity relative to solvent control): 5.41% | in vitro complex I activity relative to solvent control (C. briggsae complex I; C. briggsae mitochondria, 37.5 µM, single replicate): 0.000% and 16.226% | remaining activity at 75 µM (C. briggsae complex I; C. briggsae mitochondria, 75 µM, Mean, read-out: in vitro complex I activity relative to solvent control): 4.07% | in vitro complex I activity relative to solvent control (C. briggsae complex I; C. briggsae mitochondria, 75 µM, single replicate): 3.330% and 6.641% and 2.225% | IC50 (C. briggsae complex I; purified mitochondria): 73.7 nM

CCn1c(C(C)c2ccc(CC(C)C)cc2)nc2ccccc21 (stereo not shown) [STK951902]
# Mice cured/ # Mice investigated (H. polygyrus; single oral dose 200 mg/kg): 0/4 | % Worm burden reduction (H. polygyrus; [1]): 41.1% | Median # of living H. polygyrus worms (H. polygyrus; single oral dose 200 mg/kg): 73.0 (1.5) | % Worm burden reduction (H. polygyrus; [2]): 41.1290% | Live worms in intestine (individual mouse) (H. polygyrus; single oral dose of 200 mg/kg): 73 and 52 and 76 | Live worms in intestine, Median (+/- MAD) (H. polygyrus; single oral dose of 200 mg/kg): 73 (1.5)

Cc1cc(O)c2c(c1)O[C@@]1(C)CC[C@H]3C(C)(C)CCC[C@]34CO[C@@H]2[C@H]41 [Siccanin]
Hit Type (C. elegans; hit = modified z-score < −3): KCN
